Consider 25 substances from US20140357577A1, “HIV Membrane Fusion Inhibitors” (priority 2011, published 2014).

The subject of experiment [1] is HIV-IIIB + 50% HS. Briefly: Standard AVE (50% Human Serum), HIV-1 replication assay in MT4-LTR-EGFP cells. As to conditions: fold change vs EC50 in the assay without human serum. It counts as cell-based. The text has this: The HIV-1 replication assay (with 50% human serum) measures virus replication as an induction of enhanced green fluorescent protein (EGFP) expression, in the presence of 50% human serum. The indicator MT4-LTR-EGFP cells contain an EGFP gene under the control of the HIV-1 LTR promoter sequence. Successful HIV-1 infection results in viral Tat protein expression and subsequent induction of EGFP expression. Compounds/peptides inhibiting HIV-1 infection are expected to reduce EGFP expression as compared to the untreated HIV-infected control. Compounds/peptides binding to human serum are expected to have a reduced activity for inhibiting the virus in the assay.
Serial 4-fold dilutions of test compounds/peptides were mixed with HIV-1 and MT4-LTR-EGFP cells and incubated at 37° C., in the presence of 50% human serum. After 3 days, the wells were examined for EGFP expression using an argon laser-scanning microscope. The effective compound/peptide concentration inhibiting 50% of the virus-induced EGFP signal (EC50) was determined by linear interpolation of the EGFP signal vs. logarithm of the compound concentration; T20, C34 and Sifuvirtide were added as reference compounds. Results were reported as a fold change in EC50, as compared with the acquired EC50 in the assay without human serum.

Experiment [2] deals with HIV wild type virus strain IIIB. Put plainly: Standard Anti-Viral-Experiment (AVE), HIV-1 replication assay in MT4-LTR-EGFP cells, wild type IIIB. It counts as cell-based. Conditions: 3 days, EGFP signal. The text has this: • Standard Anti-Viral-Experiment “AVE” (wild type HIV strain IIIB+HIV strain HXB2D side directed mutants V38A and Q40H)
The HIV-1 replication assay measures virus replication (HIV wild type virus strain 111B or HXB2D, or a HIV mutant virus strain HXB2D with mutation V38A or Q40H in the gp41 gene) as an induction of enhanced green fluorescent protein (EGFP) expression. The indicator MT4-LTR-EGFP cells contain an EGFP gene under the control of the HIV-1 LTR promoter sequence. Successful HIV-1 infection results in viral Tat protein expression and subsequent induction of EGFP expression. Compounds/peptides inhibiting HIV-1 infection are expected to reduce EGFP expression as compared to the untreated HIV-infected control.
Serial 4-fold dilutions of test compounds/peptides were mixed with HIV-1 (IIIB, HXB2D, or a HXB2D mutant virus (V38A or Q40H)) and MT4-LTR-EGFP cells and incubated at 37° C. After 3 days, the wells were examined for EGFP expression using an argon laser-scanning microscope. The effective compound/peptide concentration inhibiting 50% of the virus-induced EGFP signal (EC50) was determined by linear interpolation of the EGFP signal vs. logarithm of the compound concentration; (T20, C34 and Sifuvirtide were added as reference compounds). For the V38A and Q40H mutant viruses, results were reported as a fold change in EC50, as compared with a drug-susceptible wild type strain HXB2D, which forms the backbone of the mutant virus. • Standard AVE (50% Human Serum)

Starred links: 1 amine or outer side, 2 acyl side, 3 side chain; linkers in the order of their positions; H or OH if unused. *: point of attachment. cholesteryl‑oxycarbonylmethyl = CC(C)CCC[C@@H](C)[C@H]1CC[C@H]2[C@@H]3CC=C4C[C@@H](OC(=O)C*)CC[C@]4(C)[C@H]3CC[C@]12C; Palmitoyl = CCCCCCCCCCCCCCCC(=O)*; Suc = O=C(CCC(=O)[*:2])[*:1]

One may read the EC50 as the concentration at which the effect is half-maximal. Read a low EC50 as an effect from little substance. For “Ac-ACYFACIEALIRAAQEQQEKNEAALR-NH2 [Peptide 61]”, in experiment [1], the “HIV-IIIB + 50% HS (Fold change in EC50)” value is on record as 4. The substance also yielded an EC50 in experiment [2] of 4 nM.
As for “Ac-ACYAACIEALIRAAQEQQEKNEAALR-NH2 [Peptide 64]”, the “HIV-IIIB + 50% HS (Fold change in EC50)” value in experiment [1] worked out at 0.8. The EC50 in experiment [2] worked out at 56 nM.
The corresponding values for “Suc-ECYLRCIEELIRKAQEQQEKNEAALRGSGK(palmitoyl)-NH2 (Suc-ECYLRCIEELIRKAQEQQEKNEAALRGSGK(Palmitoyl)-NH2; cysteine pairing not given here) [Peptide 88]” are 3 and 0.06 nM.
“Suc-ENYLRLIEELIRKAQEQQEKNEAALRGSGK(palmitoyl)-NH2 (Suc-ENYLRLIEELIRKAQEQQEKNEAALRGSGK(Palmitoyl)-NH2; SMILES CCCCCCCCCCCCCCCC(=O)NCCCC[C@H](NC(=O)CNC(=O)[C@H](CO)NC(=O)CNC(=O)[C@H](CCCNC(=N)N)NC(=O)[C@H](CC(C)C)NC(=O)[C@H](C)NC(=O)[C@H](C)NC(=O)[C@H](CCC(=O)O)NC(=O)[C@H](CC(N)=O)NC(=O)[C@H](CCCCN)NC(=O)[C@H](CCC(=O)O)NC(=O)[C@H](CCC(N)=O)NC(=O)[C@H](CCC(N)=O)NC(=O)[C@H](CCC(=O)O)NC(=O)[C@H](CCC(N)=O)NC(=O)[C@H](C)NC(=O)[C@H](CCCCN)NC(=O)[C@H](CCCNC(=N)N)NC(=O)[C@@H](NC(=O)[C@H](CC(C)C)NC(=O)[C@H](CCC(=O)O)NC(=O)[C@H](CCC(=O)O)NC(=O)[C@@H](NC(=O)[C@H](CC(C)C)NC(=O)[C@H](CCCNC(=N)N)NC(=O)[C@H](CC(C)C)NC(=O)[C@H](Cc1ccc(O)cc1)NC(=O)[C@H](CC(N)=O)NC(=O)[C@H](CCC(=O)O)NC(=O)CCC(=O)O)[C@@H](C)CC)[C@@H](C)CC)C(N)=O) [Peptide 55]”: the “HIV-IIIB + 50% HS (Fold change in EC50)” value in experiment [1] is recorded as 3. The substance also displayed an EC50 in experiment [2] of 0.05 nM.
With “Ac-ACYAACIEALIRKAQEQQEKNEAALR-NH2 [Peptide 71]”, the “HIV-IIIB + 50% HS (Fold change in EC50)” value in experiment [1] was determined as 1. This substance also had an EC50 in experiment [2] of 8 nM.
The corresponding values for “AC-ACYAACIEALIRAAQEQQEKNEAALR-NH2 [Peptide 89]” are 3 and 18 nM.
Take “Suc-ENYLRLIEELIRKAQEQQEKNEAALRGSGC(cholesteryl-oxycarbonylmethyl)-NH2 (Suc-ENYLRLIEELIRKAQEQQEKNEAALRGSGC(cholesteryl‑oxycarbonylmethyl)-NH2; SMILES CC[C@H](C)[C@H](NC(=O)[C@H](CC(C)C)NC(=O)[C@H](CCC(=O)O)NC(=O)[C@H](CCC(=O)O)NC(=O)[C@@H](NC(=O)[C@H](CC(C)C)NC(=O)[C@H](CCCNC(=N)N)NC(=O)[C@H](CC(C)C)NC(=O)[C@H](Cc1ccc(O)cc1)NC(=O)[C@H](CC(N)=O)NC(=O)[C@H](CCC(=O)O)NC(=O)CCC(=O)O)[C@@H](C)CC)C(=O)N[C@@H](CCCNC(=N)N)C(=O)N[C@@H](CCCCN)C(=O)N[C@@H](C)C(=O)N[C@@H](CCC(N)=O)C(=O)N[C@@H](CCC(=O)O)C(=O)N[C@@H](CCC(N)=O)C(=O)N[C@@H](CCC(N)=O)C(=O)N[C@@H](CCC(=O)O)C(=O)N[C@@H](CCCCN)C(=O)N[C@@H](CC(N)=O)C(=O)N[C@@H](CCC(=O)O)C(=O)N[C@@H](C)C(=O)N[C@@H](C)C(=O)N[C@@H](CC(C)C)C(=O)N[C@@H](CCCNC(=N)N)C(=O)NCC(=O)N[C@@H](CO)C(=O)NCC(=O)N[C@@H](CSCC(=O)O[C@H]1CC[C@@]2(C)C(=CC[C@H]3[C@@H]4CC[C@H]([C@H](C)CCCC(C)C)[C@@]4(C)CC[C@@H]32)C1)C(N)=O) [Peptide 32]”: the “HIV-IIIB + 50% HS (Fold change in EC50)” value in experiment [1] is listed as 13. The EC50 in experiment [2] was found to be 0.04 nM.
On to “Ac-ACYIACIEALIRAAQEQQEKNEAALR-NH2 [Peptide 58]”, for which the “HIV-IIIB + 50% HS (Fold change in EC50)” value in experiment [1] was 6. The same substance showed a concentration giving a half-maximal response (EC50) in experiment [2] of 4 nM.
As for “Suc-ANYLALIEALIRAAQEQQEKNEAAL-NH2 (SMILES CC[C@H](C)[C@H](NC(=O)[C@H](CC(C)C)NC(=O)[C@H](C)NC(=O)[C@H](CCC(=O)O)NC(=O)[C@@H](NC(=O)[C@H](CC(C)C)NC(=O)[C@H](C)NC(=O)[C@H](CC(C)C)NC(=O)[C@H](Cc1ccc(O)cc1)NC(=O)[C@H](CC(N)=O)NC(=O)[C@H](C)NC(=O)CCC(=O)O)[C@@H](C)CC)C(=O)N[C@@H](CCCNC(=N)N)C(=O)N[C@@H](C)C(=O)N[C@@H](C)C(=O)N[C@@H](CCC(N)=O)C(=O)N[C@@H](CCC(=O)O)C(=O)N[C@@H](CCC(N)=O)C(=O)N[C@@H](CCC(N)=O)C(=O)N[C@@H](CCC(=O)O)C(=O)N[C@@H](CCCCN)C(=O)N[C@@H](CC(N)=O)C(=O)N[C@@H](CCC(=O)O)C(=O)N[C@@H](C)C(=O)N[C@@H](C)C(=O)N[C@@H](CC(C)C)C(N)=O) [Peptide 1]”, the “HIV-IIIB + 50% HS (Fold change in EC50)” value in experiment [1] worked out at 0.4. Also, a half-maximal effect in experiment [2] (EC50) was put at 4 nM.
Regarding “Ac-CYAACIEALIRAAQEQQEKNEAALR-NH2 [Peptide 22]”, the “HIV-IIIB + 50% HS (Fold change in EC50)” value in experiment [1] is on record as 2. The substance also registered an EC50 in experiment [2] of 35 nM.
Turning to “Suc-ACYAACIEALIRAAQEQQEKNEAALR-NH2 (cysteine pairing not given here) [Peptide 67]”, the “HIV-IIIB + 50% HS (Fold change in EC50)” value in experiment [1] was 0.8. Further, the EC50 in experiment [2] worked out at 8 nM.
On the same counts, the results for “Ac-ACYVACIEALIRAAQEQQEKNEAALR-NH2 [Peptide 62]” are 2 and 10 nM.
The corresponding values for ANYAALIEALIRKAQEQQEKNEAALR [Peptide 5] are 0.5 and 48 nM.
The corresponding values for “Ac-ACYAACIDALIRAAQEQQEKNEAALR-NH2 [Peptide 70]” are 1 and 23 nM.
With “Ac-ACYAACIEALIRAAQEQQEKNEALLR-NH2 [Peptide 73]”, the “HIV-IIIB + 50% HS (Fold change in EC50)” value in experiment [1] was found to be 3. In experiment [2], this substance displayed an EC50 of 21 nM.
The corresponding values for “Ac-ACYLACIEALIRAAQEQQEKNEAALR-NH2 [Peptide 56]” are 2 and 4 nM.
The corresponding values for “AC-ECYAACIEALIRAAQEQQEKNEAALR-NH2 [Peptide 74]” are 0.9 and 53 nM.
For the substance “Suc-aNYLALIEALIRAAQEQQEKNEAALr-NH2 [Peptide 12]”, in experiment [1], the “HIV-IIIB + 50% HS (Fold change in EC50)” value came to 0.4. This substance also yielded an EC50 in experiment [2] of 10 nM.
Consider “Ac-ACYAACIEALIRAAQEQQEKNEAALR-NH2 [Peptide 65]”, for which, in experiment [1], the “HIV-IIIB + 50% HS (Fold change in EC50)” value was 1. Moreover, in experiment [2], the EC50 turned out to be 17 nM.
Turning to “Ac-ACYAAcIEALIRAAQEQQEKNEAALR-NH2 [Peptide 83]”, in experiment [1], the “HIV-IIIB + 50% HS (Fold change in EC50)” value was 3. The substance further gave an EC50 in experiment [2] of 54 nM.
The corresponding values for “Ac-aCYAACIEALIRAAQEQQEKNEAALr-NH2 [Peptide 75]” are 4 and 29 nM.
Take “Ac-ACYLACIEALIRAAQEQQEKNEAALL-NH2 [Peptide 54]”: the “HIV-IIIB + 50% HS (Fold change in EC50)” value in experiment [1] worked out at 2. Besides, the EC50 in experiment [2] was 3 nM.
The corresponding values for “AC-ACYAACIEALIRAAREQQEKNEAALR-NH2 [Peptide 84]” are 4 and 13 nM.
On the same counts, the results for “Ac-ACYAACIEELIRKAQEQQEKNEAALR-NH2 [Peptide 72]” are 0.6 and 15 nM.
On the same counts, the results for “Ac-CYAACIEALIRAAQEQQEKNEAALR-NH2 [Peptide 21]” are 3 and 5 nM.
